Experimental data taken from patent US8030016B2, “Method for screening for vitamin D receptor ligands” (Teijin Pharma Limited, priority 2006, dated 2011).

B1: TRAP100, endogenous protein in nuclear protein extracts (other, human, UniProt O75448 1-989, looked up)
chain: MKVVNLKQAILQAWKERWSDYQWAINMKKFFPKGATWDILNLADALLEQAMIGPSPNPLILSYLKYAISSQMVSYSSVLTAISKFDDFSRDLCVQALLDIMDMFCDRLSCHGKAEECIGLCRALLSALHWLLRCTAASAERLREGLEAGTPAAGEKQLAMCLQRLEKTLSSTKNRALLHIAKLEEASSWTAIEHSLLKLGEILANLSNPQLRSQAEQCGTLIRSIPTMLSVHAEQMHKTGFPTVHAVILLEGTMNLTGETQSLVEQLTMVKRMQHIPTPLFVLEIWKACFVGLIESPEGTEELKWTAFTFLKIPQVLVKLKKYSHGDKDFTEDVNCAFEFLLKLTPLLDKADQRCNCDCTNFLLQECGKQGLLSEASVNNLMAKRKADREHAPQQKSGENANIQPNIQLILRAEPTVTNILKTMDADHSKSPEGLLGVLGHMLSGKSLDLLLAAAAATGKLKSFARKFINLNEFTTYGSEESTKPASVRALLFDISFLMLCHVAQTYGSEVILSESRTGAEVPFFETWMQTCMPEEGKILNPDHPCFRPDSTKVESLVALLNNSSEMKLVQMKWHEACLSISAAILEILNAWENGVLAFESIQKITDNIKGKVCSLAVCAVAWLVAHVRMLGLDEREKSLQMIRQLAGPLFSENTLQFYNERVVIMNSILERMCADVLQQTATQIKFPSTGVDTMPYWNLLPPKRPIKEVLTDIFAKVLEKGWVDSRSIHIFDTLLHMGGVYWFCNNLIKELLKETRKEHTLRAVELLYSIFCLDMQQVTLVLLGHILPGLLTDSSKWHSLMDPPGTALAKLAVWCALSSYSSHKGQASTRQKKRHREDIEDYISLFPLDDVQPSKLMRLLSSNEDDANILSSPTDRSMSSSLSASQLHTVNMRDPLNRVLANLFLLISSILGSRTAGPHTQFVQWFMEECVDCLEQGGRGSVLQFMPFTTVSELVKVSAMSSPKVVLAITDLSLPLGRQVAAKAIAAL

Assays:
SaM-1 cells [1] = assay: Alkaline phosphatase staining of SaM-1 cells infected with Ad-CDP or Ad-mock; settings: 10^−8−10^−7 M, seven days
Protocol: The cells were used to inoculate a 24 well multi-well plate and cultured. When the cells reached 80% confluence, the medium was exchanged for a proliferation medium containing the virus, cultured overnight in order to infect the cells with the virus. Then the medium was exchange for a proliferation medium not containing a virus. […] The medium was exchanged every two days and cultured for seven days. After seven days culturing, alkaline phosphatase staining was performed.

HeLa cells = assay: Differentiation of HeLa cells in culture; format: cell-based; settings: culturing in the presence of the compound
[2] = tested on: human CYP24 gene promoter; assay: Dual luciferase assay, human CYP24 gene promoter in HOS cells; format: cell-based; settings: 10^−8 M, 24 hours
Protocol: (§1) In order to determine whether or not CDP expression increases VDR ligand-dependent transcription activity, a dual luciferase assay was performed using transient transfection in the same manner as Example 6. The reporter vector used in the dual luciferase assay was a pGL4 vector containing a sequence of human CYP24 gene promoter or a sequence of a human osteocalcin gene promoter upstream of the luciferase gene. The pGL4 vector was commercially obtained from Promega. Furthermore, a DNA sequence encoding a region of 4-427 amino acid residues for human VDR was introduced into a pTracerCMV2 vector (Invitrogen) in order to construct a human VDR expression plasmid. The expression vector for intracellular expression of the CDP protein was the pSPORT6-CDP vector used in Example 4. HOS cells used in the assay were cultured in DMEM medium containing 10% FBS and were passaged every two or three days. The culturing conditions were 37° C., 5% CO2. […] The medium was removed after 24 hours and after washing once in PBS(−), luciferase activity was determined by a Dual-Luciferase Assay kit (Promega) using a luminometer (Bethold Japan). The results were expressed as a “transcription activation” being the value represented by (firefly luciferase activity)/(renilla luciferase activity). […]

SaM-1 cells [3] = assay: Gene expression during osteoblast differentiation of SaM-1 cells, real-time RT-PCR; format: cell-based, human; settings: various concentrations, up to 28 days, relative to beta actin
Text: The medium was replaced every 2 to 3 days. Cells were recovered at the fourth day, seventh day, fourteenth day, and twenty-eighth day until the final differentiation (calcification) on the twenty-eighth day. Total RNA was extracted using an RNeasy Mini Kit (QIAGEN, Product No. 74104) and cDNA synthesized using an Ommniscript RTKit (QIAGEN, Product No. 205110). The cDNA was mixed with SYBR Green PCR Master Mix (Applied Biosystems, Product No. 4367659) and primer oligos suitable for amplifying various types of genes. Variation in the gene expression of the alkaline phosphatase which is a marker for osteoblast differentiation, CDP and osteocalcin, and beta actin which is known as a universally expressed housekeeping gene was examined by real-time RT-PCR using a GeneAmp 5700 Sequence Detection System (Applied Biosystems) or ABI PRISM 7000 Sequence Detection System (Applied Biosystems). Oligos complementary to the various genes were designed by general methods and synthesized by Sigma Genosys. The results are shown by relative values with respect to the amount of expression of beta actin. […] The value for the relative amount of expression is calculated using the formula 2^−(ΔΔCT of target gene−ΔΔCT of beta actin).

MCF-7 cells = assay: Differentiation of MCF-7 cells in culture; format: cell-based; settings: culturing in the presence of the compound
[4] = tested on: human osteocalcin gene promoter; assay: Dual luciferase assay, human osteocalcin gene promoter in HOS cells; format: cell-based; settings: 10^−8 M, 24 hours, endogenous VDR
Protocol: as §1

HOS-TE85 cells = assay: Differentiation of HOS-TE85 cells in culture; format: cell-based; settings: culturing in the presence of the compound
HOS cells = assay: Gene expression in HOS cells transfected with pSPORT6-CDP, real-time RT-PCR; format: cell-based, human; settings: HOS cells with CDP introduced, various concentrations, three days, relative to GAPDH
Protocol: After three days, cells were recovered, and total RNA was extracted using an RNeasy Mini Kit (QIAGEN, Product No. 74104). Reverse transcription reactions were performed by oligo dT primers using SuperScriptlll RT (Invitrogen, 18080-044) and the amount of expression of various genes was determined using real-time RT-PCR (Applied Biosystems, GeneAmp7000). The amount of gene expression was corrected using GAPDH which is a housekeeping gene and shown as a relative figure of GAPDH and the amount of respective gene expression. The formula used is the same as that used in Example 5.

[5] = target: T1, CCAAT Displacement Protein (CDP), endogenous protein in nuclear protein extracts (human, UniProt P39880 1-1505, limits assumed); assay: immunoprecipitation with anti-CDP antibody of the glutathione eluate of GST-VDR-bound HOS nuclear proteins (with 1,25(OH)2D3); western blot
T1 construct: Endogenous protein of nuclear extracts from HOS (human osteoblast cell strain), HeLa or Caco-2 cells; also called CUTL1; CUX
T1 sequence (P39880 whole entry): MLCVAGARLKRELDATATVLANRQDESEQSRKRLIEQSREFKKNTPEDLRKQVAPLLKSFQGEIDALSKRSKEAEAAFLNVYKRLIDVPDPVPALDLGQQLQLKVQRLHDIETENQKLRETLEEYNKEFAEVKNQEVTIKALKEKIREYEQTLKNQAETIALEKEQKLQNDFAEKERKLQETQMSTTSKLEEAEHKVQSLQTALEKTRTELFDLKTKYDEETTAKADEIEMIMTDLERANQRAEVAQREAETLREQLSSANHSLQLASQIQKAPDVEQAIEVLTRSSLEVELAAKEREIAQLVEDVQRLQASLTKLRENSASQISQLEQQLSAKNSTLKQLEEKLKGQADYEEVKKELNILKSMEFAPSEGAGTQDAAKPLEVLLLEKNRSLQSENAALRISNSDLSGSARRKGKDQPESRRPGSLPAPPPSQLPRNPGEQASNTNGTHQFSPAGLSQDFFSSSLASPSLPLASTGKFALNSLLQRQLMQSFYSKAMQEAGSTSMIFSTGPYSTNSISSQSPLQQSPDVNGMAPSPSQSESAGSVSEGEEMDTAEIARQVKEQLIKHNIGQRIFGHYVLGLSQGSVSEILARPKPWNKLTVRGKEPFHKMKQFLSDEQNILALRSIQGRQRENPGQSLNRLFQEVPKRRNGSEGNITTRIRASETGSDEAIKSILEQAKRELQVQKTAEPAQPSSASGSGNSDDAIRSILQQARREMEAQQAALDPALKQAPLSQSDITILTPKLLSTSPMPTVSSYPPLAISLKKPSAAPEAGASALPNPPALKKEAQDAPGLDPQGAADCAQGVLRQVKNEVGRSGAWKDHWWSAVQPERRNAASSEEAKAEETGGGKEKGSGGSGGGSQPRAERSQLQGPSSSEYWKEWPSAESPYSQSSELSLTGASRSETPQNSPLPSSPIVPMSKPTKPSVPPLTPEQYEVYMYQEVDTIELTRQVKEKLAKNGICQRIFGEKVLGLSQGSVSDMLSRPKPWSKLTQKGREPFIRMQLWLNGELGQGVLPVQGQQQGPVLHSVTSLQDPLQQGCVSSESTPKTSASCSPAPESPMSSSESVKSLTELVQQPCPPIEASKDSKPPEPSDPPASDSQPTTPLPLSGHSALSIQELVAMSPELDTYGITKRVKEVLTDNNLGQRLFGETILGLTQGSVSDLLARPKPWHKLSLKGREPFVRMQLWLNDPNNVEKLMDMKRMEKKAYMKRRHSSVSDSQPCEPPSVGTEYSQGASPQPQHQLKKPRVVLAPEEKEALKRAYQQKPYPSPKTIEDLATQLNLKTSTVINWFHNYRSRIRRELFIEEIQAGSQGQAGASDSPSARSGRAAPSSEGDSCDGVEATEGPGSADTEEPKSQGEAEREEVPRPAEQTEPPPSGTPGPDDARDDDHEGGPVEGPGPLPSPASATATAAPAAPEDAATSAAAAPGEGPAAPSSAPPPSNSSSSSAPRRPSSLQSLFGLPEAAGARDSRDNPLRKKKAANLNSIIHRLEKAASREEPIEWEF

binding result [5]	Molecule	number of alkaline phosphatase-positive cells (SaM-1 cells [1]; Ad-CDP group (CDP over-expressed))	number of alkaline phosphatase-positive cells (SaM-1 cells [1]; Ad-mock group)	cell differentiation (HeLa cells)	VDR-mediated transcription activation of a human CYP24 promoter [2]	VDR-mediated transcription activation of a human CYP24 promoter when CDP is expressed ([2]; pSPORT6-CDP co-transfected)	gene expression of CDP (SaM-1 cells [3])	gene expression of osteocalcin (SaM-1 cells [3])	cell differentiation (MCF-7 cells)	VDR-mediated transcription activation of a human osteocalcin promoter [4]	VDR-mediated transcription activation of a human osteocalcin promoter when CDP is expressed ([4]; pSPORT6-CDP co-transfected)	cell differentiation (HOS-TE85 cells)	gene expression of CYP24 (HOS cells)	gene expression of alkaline phosphatase (ALP) (HOS cells)	gene expression of osteocalcin (HOS cells)
–	C=C1/C(=C\C=C2/CCC[C@]3(C)[C@@H]([C@H](C)CCCC(C)(C)O)CC[C@@H]23)C[C@@H](O)C[C@@H]1O [1,25 (OH)2D3, 1α,25-dihydroxyvitamin D3]	conspicuously higher increase in the number of alkaline phosphatase-positive cells	increase in the number of alkaline phosphatase-positive cells	this type of action was not seen	increases	further increased when CDP is expressed	increase	increase	this type of action was not seen	increases	further increased when CDP is expressed	differentiate	increased	increased	increased
no binding	B1	–	–	–	–	–	–	–	–	–	–	–	–	–	–
